Reference: ChEMBL document CHEMBL6127081, “Peptide inhibitors targeting Ras and Ras-associated protein-protein interactions” (Eur J Med Chem, 2024)
Where a SMILES comes first, the peptide text is derived from it. Bridges are numbered along the chain shown (N, C = ends). [ ]: non-standard residue; d: D form. The star is where a group is joined. hPhe(3-Cl-4-CF3) = N[C@@H](CCc1ccc(C(F)(F)F)c(Cl)c1)C(=O)O; hPhe(4-CF3) = N[C@@H](CCc1ccc(C(F)(F)F)cc1)C(=O)O; NMePhe(4-Cl) = CN[C@@H](Cc1ccc(Cl)cc1)C(=O)O; Phe(3-Cl) = N[C@@H](Cc1cccc(Cl)c1)C(=O)O; NMeCha = CN[C@@H](CC1CCCCC1)C(=O)O; NMeF = CN[C@@H](Cc1ccccc1)C(=O)O; NMeL = CN[C@@H](CC(C)C)C(=O)O; NMeV = CN[C@H](C(=O)O)C(C)C; NMeA = CN[C@@H](C)C(=O)O; Pyrrolidide = C1CCN(*)C1; Ac5c = NC1(C(=O)O)CCCC1; β3hA = C[C@H](N)CC(=O)O; Sar = CNCC(=O)O

Experiments:
SOS1-KRAS [1] = target: SOS1-KRAS (Homo sapiens, UniProt P01116, G12D); assay: Inhibition of KRAS G12D mutant/SOS1 (unknown origin) interaction by TR-FRET assay; type: protein-complex assay
[2] = Inhibition of Biotinylated Avi-tagged KRas G12D mutant/GST tagged Raf1-RBD domain (1 to 149 residues) (unknown origin) incubated for 1 hr by TR-FRET assay; design: species or system Homo sapiens
GTPase KRas [3] = target: T1, GTPase KRas (Homo sapiens, UniProt P01116); assay: Binding affinity to GTP bound KRas (unknown origin) assessed as dissociation constant by fluorescence anisotropy assay
GTPase KRas [4] = target: T1, GTPase KRas; assay: Binding affinity to GppNHp bound KRas (unknown origin) assessed as dissociation constant by fluorescence anisotropy assay
GTPase KRas [5] = target: T1, GTPase KRas; assay: Inhibition of KRas (unknown origin)
GTPase KRas [6] = target: T1, GTPase KRas; assay: Binding affinity to KRas (unknown origin) assessed as dissociation constant
GTPase KRas [7] = target: GTPase KRas (Homo sapiens, UniProt P01116, G12D); assay: Inhibition of human KRas G12D mutant incubated for 0.5 hrs by absorbance based analysis
SOS1-KRAS [8] = target: T2, SOS1-KRAS (Homo sapiens, UniProt P01116); assay: Binding affinity to his-tagged N-terminal KRas (1 to 166 residues)/his-tagged catalytic domain SOS (564 to 1049 residues) (unknown origin) interaction extracted from Escherichia coli (BL21) assessed as dissociation constant by fluorescence polarization assay; type: protein-complex assay
SOS1-KRAS [9] = target: T2, SOS1-KRAS; assay: Binding affinity to his-tagged N-terminal GDP-bound KRas (1 to 166 residues)/his-tagged catalytic domain SOS (564 to 1049 residues) (unknown origin) interaction extracted from Escherichia coli (BL21) assessed as dissociation constant by fluorescence polarization assay; type: protein-complex assay
SOS1-KRAS [10] = target: T2, SOS1-KRAS; assay: Inhibition of his-tagged N-terminal GDP-bound KRas (1 to 166 residues)/his-tagged catalytic domain SOS (564 to 1049 residues) (unknown origin) interaction extracted from Escherichia coli (BL21) by fluorescence based spectroflurometric analysis; type: protein-complex assay

Question: With CC[C@H](C)[C@@H]1NC(=O)[C@H](CC(C)C)N(C)C(=O)C[C@H](C)NC(=O)[C@H](C(C)C)N(C)C(=O)C2(CCCC2)NC(=O)[C@@H]2CCCN2C(=O)[C@H](CCc2ccc(C(F)(F)F)c(Cl)c2)NC(=O)CN(C)C(=O)[C@H](CC2CCCCC2)N(C)C(=O)CN(C)C1=O (cyclo([Ac5c][NMeV][β3hA][NMeL]I[Sar][NMeCha][Sar][hPhe(3-Cl-4-CF3)]P)) as the compound, how does the IC50 (SOS1-KRAS [1]) read?
Answer: The IC50 was 0.011 µM.

Question: With CC(C)C[C@@H]1NC(=O)[C@H](CCC(=O)O)NC(=O)[C@H](CC(C)C)NC(=O)[C@@H]2CCCN2C(=O)[C@H](CCCNC(=N)N)NC(=O)[C@H](Cc2ccc(O)cc2)NC(=O)[C@@H]2CCCN2C(=O)[C@H](Cc2ccc(O)cc2)NC(=O)[C@H](CC(N)=O)NC(=O)[C@@H](Cc2ccc(O)cc2)NC(=O)CSC[C@@H](C(=O)NCC(N)=O)NC(=O)[C@H](Cc2ccc(O)cc2)NC(=O)[C@H](Cc2c[nH]c3ccccc23)NC1=O as the compound, how does the IC50 [2] read?
Answer: Its IC50 is 15.3 µM.

Question: With CC(C)[C@H]1NC(=O)[C@H](CCCNC(=N)N)NC(=O)[C@@H](Cc2ccccc2)NC(=O)[C@@H]2CCCCNC(=O)c3cc(cc(c3)C(=O)N[C@H](Cc3ccc4ccccc4c3)C(=O)N[C@@H](CO)C(=O)N[C@@H](CCC(N)=O)C(=O)N[C@H](Cc3ccc4ccccc4c3)C(=O)N[C@@H](c3ccccc3)C(=O)N2)C(=O)NC[C@@H](C(N)=O)NC(=O)[C@H](CCCNC(=N)N)NCC1=O as the compound, how does the Kd (GTPase KRas [3]) read?
Answer: Its Kd is 1.2 µM.

Question: And the Kd (GTPase KRas [4])?
Answer: Its Kd is 1.6 µM.

Question: For CC[C@H](C)[C@@H]1NC(=O)[C@H](CC(C)C)N(C)C(=O)C[C@H](C)NC(=O)[C@H](CC(C)C)N(C)C(=O)C2(CCCC2)NC(=O)[C@@H]2CCCN2C(=O)[C@H](CCc2ccc(C(F)(F)F)cc2)NC(=O)CN(C)C(=O)[C@H](CC2CCCCC2)N(C)C(=O)CN(C)C(=O)CN(C)C1=O (cyclo([Ac5c][NMeL][β3hA][NMeL]I[Sar][Sar][NMeCha][Sar][hPhe(4-CF3)]P)), which IC50 (SOS1-KRAS [1]) is on record?
Answer: Its IC50 is 0.11 µM.

Question: For CC[C@H](C)[C@@H]1NC(=O)[C@H](C)N(C)C(=O)C[C@@H](C(=O)N2CCCC2)NC(=O)[C@H](C(C)C)N(C)C(=O)[C@H](Cc2ccccc2)N(C)C(=O)[C@H](Cc2c[nH]c3ccccc23)NC(=O)[C@H](Cc2cccc(Cl)c2)NC(=O)CN(C)C(=O)[C@H](Cc2ccc(Cl)cc2)N(C)C(=O)CN(C)C(=O)CN(C)C1=O ([NMeA]I[Sar][Sar][NMePhe(4-Cl)][Sar][Phe(3-Cl)]W[NMeF][NMeV]D-Pyrrolidide; lactam N-11), which IC50 (SOS1-KRAS [1]) is on record?
Answer: The IC50 was 0.054 µM.

Question: For CC[C@H](C)[C@@H]1NC(=O)[C@@H]2CCCN2C(=O)CNC(=O)CCn2nncc2COCCCC(C(=O)N[C@@H](CC(C)C)C(N)=O)NC1=O (stereo not given in full), which IC50 (GTPase KRas [5]) is on record?
Answer: The IC50 was 100 µM.

Question: Which Kd (GTPase KRas [6]) does the source give for Cc1[nH]c2cc(Cl)cc(Cl)c2c1CCN here?
Answer: The Kd was about 1100 µM.

Question: With CC[C@H](C)[C@@H]1NC(=O)[C@H](Cc2ccccc2)NC(=O)[C@H](CCCCN)NC(=O)[C@H](CCC(=O)O)NC(=O)[C@H]([C@@H](C)O)NC(=O)[C@H](C(C)C)NC(=O)[C@H]([C@@H](C)CC)NC(=O)[C@H]([C@@H](C)CC)NC(=O)[C@H](Cc2ccc(O)cc2)NC(=O)CSC[C@@H](C(=O)NCC(N)=O)NC(=O)[C@H](Cc2c[nH]cn2)NC(=O)[C@H](Cc2c[nH]cn2)NC(=O)[C@H](C(C)C)NC(=O)[C@H](Cc2c[nH]c3ccccc23)NC1=O as the compound, how does the IC50 [2] read?
Answer: The IC50 was 3 µM.

Question: With CCCCCCC[C@@H]1NC(=O)[C@H](CO)NC(=O)[C@H](Cc2ccc(F)cc2)NC(=O)[C@H](CC(=O)O)NC(=O)[C@@H]2CCCN2C(=O)[C@H](Cc2c[nH]c3ccccc23)NC(=O)[C@H]2CSCCCSC[C@H](NC1=O)C(=O)N[C@@H](CCCC)C(=O)NCCC(=O)N2 as the compound, how does the EC50 (GTPase KRas [7]) read?
Answer: The EC50 was 0.022 µM.

Question: Which IC50 (GTPase KRas [5]) does the source give for CC[C@H](C)[C@@H]1NC(=O)[C@@H]2CCCN2C(=O)[C@H](Cc2ccc(O)cc2)NC(=O)[C@@H](NC(=O)[C@H](CC(=O)O)NC(=O)[C@H](Cc2ccc(O)cc2)NC(=O)[C@H](Cc2ccccc2)NC(=O)[C@H](Cc2c[nH]cn2)NC(=O)[C@@H](N)Cc2ccccc2)CC#CC[C@@H](C(=O)N[C@@H](CC(C)C)C(=O)N[C@H](C(=O)N2CCC[C@H]2C(=O)N2CCC[C@H]2C(N)=O)[C@@H](C)CC)NC1=O here?
Answer: The IC50 was 0.023 µM.

Question: Which IC50 (SOS1-KRAS [1]) does the source give for CC[C@H](C)[C@H](NC(=O)CN1C/C=C\CCC(=O)N[C@@H](Cc2ccccc2)C(=O)N[C@@H](CCC(=O)O)C1=O)C(=O)N[C@@H](Cc1ccc(O)cc1)C(=O)N[C@@H](CCCNC(=N)N)C(=O)N[C@@H](CC(C)C)C(=O)N[C@@H](CCC(=O)O)C(=O)N[C@@H](CC(C)C)C(=O)N[C@@H](CC(C)C)C(=O)N[C@@H](CCCCN)C(=O)N[C@@H](C)C(=O)N[C@@H](CCC(=O)O)C(=O)N[C@@H](CCC(=O)O)C(=O)N[C@@H](C)C(=O)N[C@@H](CC(N)=O)C(N)=O here?
Answer: Its IC50 is 0.64 µM.

Question: What about the Kd (SOS1-KRAS [8]) of the same compound?
Answer: Its Kd is 28 µM.

Question: What about the Kd (SOS1-KRAS [9]) of the same compound?
Answer: The Kd was 158 µM.

Question: And the IC50 (SOS1-KRAS [10])?
Answer: The IC50 was 6.9 µM.
